Patent US4755513A, “Antimicrobial 1-substituted phenyl-4-oxoquinoline-3-carboxylic acid compounds” (Otsuka Pharmaceutical Company, Limited, priority 1985, dated 1988)
Where two headings read alike, the source gives them in different places. Each block holds one compound with its values, some of them ahead of it.

Columns and labels:
[1] = system: Staphylococcus aureus FDA 209P; test: MIC by serial dilution method on agar plate; format: cell-based
Description: (§1) The microorganisms were used in a concentration of 1×10^8 cells/ml (O.D. 660 mμ, 0.07-0.16) and 1×10^6 cells/ml (100 folds dilution).

[2] = system: Staphylococcus pyrogens IID S-23; test: MIC by serial dilution method on agar plate; format: cell-based
Description: as §1

[3] = system: Acinetobacter calcoaceticus AC-54; test: MIC by serial dilution method on agar plate; format: cell-based
Description: (§2) Chemotherapy, 22, 1126-1128 (1974)]. The microorganisms were used in a concentration of 1×10^8 cells/ml (O.D. 660 mμ, 0.07-0.16) and 1×10^6 cells/ml (100 folds dilution).

[4] = system: Bacillus subtilis ATCC 6633; test: MIC by serial dilution method on agar plate; format: cell-based
Description: as §2

[5] = system: Escherichia coli NIHJ JC-2; test: MIC by serial dilution method on agar plate; format: cell-based
Description: as §2

Escherichia coli No. 29 = test: MIC by serial dilution method on agar plate; format: cell-based
Description: as §2

[6] = system: Klebsiella pneumoniae NCTC 9632; test: MIC by serial dilution method on agar plate; format: cell-based
Description: as §2

[7] = system: Proteus inconstans IFO 12930; test: MIC by serial dilution method on agar plate; format: cell-based
Description: as §2

[8] = system: Proteus morganii IID Kono; test: MIC by serial dilution method on agar plate; format: cell-based
Description: as §2

[9] = system: Pseudomonas aeruginosa ATCC 10145; test: MIC by serial dilution method on agar plate; format: cell-based
Description: as §2

[10] = system: Pseudomonas aeruginosa E-2; test: MIC by serial dilution method on agar plate; format: cell-based
Description: as §2

[11] = system: Serratia marcescens IFO 12648; test: MIC by serial dilution method on agar plate; format: cell-based
Description: as §2

[12] = Absorption by oral administration in monkey (plasma concentration, thin layer cup bio-assay); format: in vivo; conditions: 100 mg/kg;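 also: plasma concentration in γ/ml (µg/mL) rather than the printed ng/mL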
Procedure: The test compounds were dissolved in 0.1N hydrochloric acid or suspended in 0.5% sodium carboxymethyl cellulose solution. The solution or suspension was administered into stomach of monkey (two monkeys) with cathetel. After the administration of test compounds, the blood was collected from the lower limbs vein at a fixed interval with a syringe treated with heparin. The collected blood was centrifuged at 3,000 r.p.m. for 10 minutes to separate the plasma. The concentration of the test compound was measured by a thin layer cup method (a bio-assay), wherein Bacillus subtilis ATCC 6633 was used as a bacteria for determination. Based on a standard curve, the concentration of test compound in plasma was calculated.

- minimum inhibitory concentration (MIC) ([1]; 1 × 10^6 cells/ml): 0.195
- minimum inhibitory concentration (MIC) ([1]; 1 × 10^8 cells/ml): 0.39
- minimum inhibitory concentration (MIC) ([2]; 1 × 10^6 cells/ml): 3.12
- minimum inhibitory concentration (MIC) ([2]; 1 × 10^8 cells/ml): 6.25
- minimum inhibitory concentration (MIC) ([3]; 1 × 10^6 cells/ml): 0.39
- minimum inhibitory concentration (MIC) ([3]; 1 × 10^8 cells/ml): 0.39
- minimum inhibitory concentration (MIC) ([4]; 1 × 10^6 cells/ml): 0.097
- minimum inhibitory concentration (MIC) ([4]; 1 × 10^8 cells/ml): 0.195
- minimum inhibitory concentration (MIC) ([5]; 1 × 10^6 cells/ml): 0.195
- minimum inhibitory concentration (MIC) ([5]; 1 × 10^8 cells/ml): 0.195
- minimum inhibitory concentration (MIC) (Escherichia coli No. 29; 1 × 10^6 cells/ml): 0.097
- minimum inhibitory concentration (MIC) (Escherichia coli No. 29; 1 × 10^8 cells/ml): 0.195
- minimum inhibitory concentration (MIC) ([6]; 1 × 10^6 cells/ml): 0.195
- minimum inhibitory concentration (MIC) ([6]; 1 × 10^8 cells/ml): 0.195
- minimum inhibitory concentration (MIC) ([7]; 1 × 10^6 cells/ml): 3.12
- minimum inhibitory concentration (MIC) ([7]; 1 × 10^8 cells/ml): 3.12
- minimum inhibitory concentration (MIC) ([8]; 1 × 10^6 cells/ml): 0.78
- minimum inhibitory concentration (MIC) ([8]; 1 × 10^8 cells/ml): 0.78
- minimum inhibitory concentration (MIC) ([9]; 1 × 10^6 cells/ml): 3.12
- minimum inhibitory concentration (MIC) ([9]; 1 × 10^8 cells/ml): 3.12
- minimum inhibitory concentration (MIC) ([10]; 1 × 10^6 cells/ml): 3.12
- minimum inhibitory concentration (MIC) ([10]; 1 × 10^8 cells/ml): 3.12
- minimum inhibitory concentration (MIC) ([11]; 1 × 10^6 cells/ml): 0.78
- minimum inhibitory concentration (MIC) ([11]; 1 × 10^8 cells/ml): 3.12
Structure (SMILES): CN1CCN(c2cc3c(cc2F)c(=O)c(C(=O)O)cn3-c2ccc(F)cc2)CC1 [A]

- minimum inhibitory concentration (MIC) ([1]; 1 × 10^6 cells/ml): 0.195
- minimum inhibitory concentration (MIC) ([1]; 1 × 10^8 cells/ml): 0.39
- minimum inhibitory concentration (MIC) ([2]; 1 × 10^6 cells/ml): 3.12
- minimum inhibitory concentration (MIC) ([2]; 1 × 10^8 cells/ml): 6.25
- minimum inhibitory concentration (MIC) ([3]; 1 × 10^6 cells/ml): 0.195
- minimum inhibitory concentration (MIC) ([3]; 1 × 10^8 cells/ml): 0.39
- minimum inhibitory concentration (MIC) ([4]; 1 × 10^6 cells/ml): 0.097
- minimum inhibitory concentration (MIC) ([4]; 1 × 10^8 cells/ml): 0.195
- minimum inhibitory concentration (MIC) ([5]; 1 × 10^6 cells/ml): < 0.048
- minimum inhibitory concentration (MIC) ([5]; 1 × 10^8 cells/ml): 0.097
- minimum inhibitory concentration (MIC) (Escherichia coli No. 29; 1 × 10^6 cells/ml): < 0.048
- minimum inhibitory concentration (MIC) (Escherichia coli No. 29; 1 × 10^8 cells/ml): 0.097
- minimum inhibitory concentration (MIC) ([6]; 1 × 10^6 cells/ml): < 0.048
- minimum inhibitory concentration (MIC) ([6]; 1 × 10^8 cells/ml): 0.097
- minimum inhibitory concentration (MIC) ([7]; 1 × 10^6 cells/ml): 0.78
- minimum inhibitory concentration (MIC) ([7]; 1 × 10^8 cells/ml): 0.78
- minimum inhibitory concentration (MIC) ([8]; 1 × 10^6 cells/ml): 0.195
- minimum inhibitory concentration (MIC) ([8]; 1 × 10^8 cells/ml): 0.195
- minimum inhibitory concentration (MIC) ([9]; 1 × 10^6 cells/ml): 0.78
- minimum inhibitory concentration (MIC) ([9]; 1 × 10^8 cells/ml): 1.56
- minimum inhibitory concentration (MIC) ([10]; 1 × 10^6 cells/ml): 0.78
- minimum inhibitory concentration (MIC) ([10]; 1 × 10^8 cells/ml): 0.78
- minimum inhibitory concentration (MIC) ([11]; 1 × 10^6 cells/ml): 0.195
- minimum inhibitory concentration (MIC) ([11]; 1 × 10^8 cells/ml): 0.39
Structure (SMILES): O=C(O)c1cn(-c2ccc(F)cc2)c2cc(N3CCNCC3)c(F)cc2c1=O [B]

Structure (SMILES): CN1CCN(c2cc3c(cc2F)c(=O)c(C(=O)O)cn3-c2ccc(O)cc2)CC1 [C]
- minimum inhibitory concentration (MIC) ([1]; 1 × 10^6 cells/ml): < 0.048
- minimum inhibitory concentration (MIC) ([1]; 1 × 10^8 cells/ml): 0.097
- minimum inhibitory concentration (MIC) ([2]; 1 × 10^6 cells/ml): 0.78
- minimum inhibitory concentration (MIC) ([2]; 1 × 10^8 cells/ml): 1.56
- minimum inhibitory concentration (MIC) ([3]; 1 × 10^6 cells/ml): 0.195
- minimum inhibitory concentration (MIC) ([3]; 1 × 10^8 cells/ml): 0.39
- minimum inhibitory concentration (MIC) ([4]; 1 × 10^6 cells/ml): 0.097
- minimum inhibitory concentration (MIC) ([4]; 1 × 10^8 cells/ml): 0.097
- minimum inhibitory concentration (MIC) ([5]; 1 × 10^6 cells/ml): 0.097
- minimum inhibitory concentration (MIC) ([5]; 1 × 10^8 cells/ml): 0.097
- minimum inhibitory concentration (MIC) (Escherichia coli No. 29; 1 × 10^6 cells/ml): < 0.048
- minimum inhibitory concentration (MIC) (Escherichia coli No. 29; 1 × 10^8 cells/ml): 0.097
- minimum inhibitory concentration (MIC) ([6]; 1 × 10^6 cells/ml): < 0.048
- minimum inhibitory concentration (MIC) ([6]; 1 × 10^8 cells/ml): 0.097
- minimum inhibitory concentration (MIC) ([7]; 1 × 10^6 cells/ml): 0.39
- minimum inhibitory concentration (MIC) ([7]; 1 × 10^8 cells/ml): 0.78
- minimum inhibitory concentration (MIC) ([8]; 1 × 10^6 cells/ml): 0.39
- minimum inhibitory concentration (MIC) ([8]; 1 × 10^8 cells/ml): 0.39
- minimum inhibitory concentration (MIC) ([9]; 1 × 10^6 cells/ml): 0.78
- minimum inhibitory concentration (MIC) ([9]; 1 × 10^8 cells/ml): 1.56
- minimum inhibitory concentration (MIC) ([10]; 1 × 10^6 cells/ml): 0.39
- minimum inhibitory concentration (MIC) ([10]; 1 × 10^8 cells/ml): 0.78
- minimum inhibitory concentration (MIC) ([11]; 1 × 10^6 cells/ml): 0.195
- minimum inhibitory concentration (MIC) ([11]; 1 × 10^8 cells/ml): 0.39
- concentration at 0.5 h ([12]; Run 1, 0.5 hour, read-out: Amount of test compd. in plasma): 360 ng/mL
- concentration at 1 h ([12]; Run 1, 1 hour, read-out: Amount of test compd. in plasma): 490 ng/mL
- concentration at 2 h ([12]; Run 1, 2 hour, read-out: Amount of test compd. in plasma): 650 ng/mL
- concentration at 4 h ([12]; Run 1, 4 hour, read-out: Amount of test compd. in plasma): 960 ng/mL
- concentration at 7 h ([12]; Run 1, 7 hour, read-out: Amount of test compd. in plasma): 950 ng/mL
- concentration at 24 h ([12]; Run 1, 24 hour, read-out: Amount of test compd. in plasma): 900 ng/mL
- concentration at 0.5 h ([12]; Run 2, 0.5 hour, read-out: Amount of test compd. in plasma): < 390 ng/mL
- concentration at 1 h ([12]; Run 2, 1 hour, read-out: Amount of test compd. in plasma): < 390 ng/mL
- concentration at 2 h ([12]; Run 2, 2 hour, read-out: Amount of test compd. in plasma): < 390 ng/mL
- concentration at 4 h ([12]; Run 2, 4 hour, read-out: Amount of test compd. in plasma): < 390 ng/mL
- concentration at 7 h ([12]; Run 2, 7 hour, read-out: Amount of test compd. in plasma): < 390 ng/mL
- concentration at 24 h ([12]; Run 2, 24 hour, read-out: Amount of test compd. in plasma): < 390 ng/mL
- concentration at 0.5 h ([12]; average of two runs, 0.5 hour, read-out: Amount of test compd. in plasma, Average): < 280 ng/mL
- concentration at 1 h ([12]; average of two runs, 1 hour, read-out: Amount of test compd. in plasma, Average): < 350 ng/mL
- concentration at 2 h ([12]; average of two runs, 2 hour, read-out: Amount of test compd. in plasma, Average): < 430 ng/mL
- concentration at 4 h ([12]; average of two runs, 4 hour, read-out: Amount of test compd. in plasma, Average): < 580 ng/mL
- concentration at 7 h ([12]; average of two runs, 7 hour, read-out: Amount of test compd. in plasma, Average): < 580 ng/mL
- concentration at 24 h ([12]; average of two runs, 24 hour, read-out: Amount of test compd. in plasma, Average): < 550 ng/mL
